Reference: patent publication US6989393B2, “Ccr5 modulators benzimidazoles or benzotriazoles” (AstraZeneca AB, priority 2000, dated 2006)

Row | melting point [°C] | SMILES
1 | 172 to 173 | N#CC(CCN1CCC(n2cnc3ccccc32)CC1)(c1ccccc1)c1ccccc1 [Example 19, 1-[1-(3-Cyano-3,3-diphenylpropyl)-piperidin-4-yl]benzimidazole]
2 | 156 to 157 | c1ccc(C(CCN2CCC(n3cnc4ccccc43)CC2)c2ccccc2)cc1 [Example 2, 1-[1-(3,3-Diphenylpropyl)-piperidin-4-yl]benzimidazole]
